Consider two compounds from paper PMC10518255, “A first-in-class pan-lysyl oxidase inhibitor impairs stromal remodeling and enhances gemcitabine response and survival in pancreatic cancer” (Nature Cancer, 2023).

One experiment concerns TKCC10 human PDX tumors. The experiment can be described thus: TKCC10 human model survival study (Extended Data Fig. 5k). It is filed as in vivo, mouse. On the procedure: Subcutaneous PDX studies were performed by implanting early passage PDX pieces (~4 mm^3) or TKCC10 CCs (1.5 × 10^6 cells per mouse in 100 μl PBS/Matrigel 1:1) into female (PDX) or male (TKCC10) 8-week-old immunocompromised nude Balb/c-Fox1nuAusb mice subcutaneously on the left flank. For the duration of the study, mice were kept in conventional caging with environmental enrichment, access to standard chow, water ad libitum and 12-h light–dark cycle at ambient temperature and humidity. […] Tumor size was monitored every second day by calipers. Tumor volume was calculated using the formula (length × width^2)/2. […]
Extended Data Fig. 5 PXS-5505 in combination with gemcitabine in vivo. a. […] Signal is defined as the enzyme activity in the aorta, while noise is measured in the presence of a high concentration (300 µM) BAPN to abolish any lysyl oxidase family activity. […] FITC-dextran (molecular weight: 10 kDa) signal quantification from KPC tumor end point from each treatment group (vehicle n = 3 biologically independent animals, PXS-5505 n = 5 biologically independent animals, Gem n = 5 biologically independent animals, PXS-5505 + Gem n = 5 biologically independent animals). […] P-values determined by Welchs t-test. […] Quantification of red birefringent (mature) collagen fibers from human PDXs at end point after 3 cycles of treatment, treated as indicated. […]

The subject of the next experiment is pSTAT3. Description: Immunohistochemistry of end-point KPC tumors: STAT3 activation. It is filed as in vivo, mouse. To be noted: for Quantification of STAT3 activation (pSTAT3 positive nuclear staining): Extended Data 6F, KPC tumours at endpoint, individual FOV. The protocol: All tissues or matrices, including patient TMAs, were fixed in 10% buffered formalin and embedded in paraffin. The 4-μm sections of samples were deparaffinized with xylene and rehydrated in graded ethanol washes. For immunohistochemistry, Bond Dewax Solution (AR9222) was used. Antigen retrieval was performed using Bond RX H2(30) protocol: HIER 30 min ER1 (citrate pH 6) OR ER2 (EDTA pH 9) at 100 °C. Slides were quenched in BOND Polymer Refine Detection (Leica Biosystems DS9800). […] Slides were digitized on an Aperio slide scanner and representative areas per tumor acquired and analyzed by researchers blinded to the conditions of the experiment.
Extended Data Fig. 6 PXS-5505 in combination with gemcitabine in a KPC model. a. Quantification of proliferating cells (Ki67 positive nuclear staining) in KPC tumors at end point, treated as indicated. 5 fields of view (500 μm × 500 μm) per mouse and 10 mice per cohort were scored. […] Quantification of percent coverage of αSMA positive staining in KPC tumors at end point, treated as indicated. 3 fields of view (1000 μm × 1000 μm) per mouse and 10 mice per cohort were scored. […] Quantification of percent coverage of PDGFR-ß positive staining in KPC tumors at end point, treated as indicated. 3 fields of view (1000 μm × 1000 μm) per mouse and 10 mice per cohort were scored. […] Quantification of pMLC2 positive staining in stromal regions of KPC tumors at end point, treated as indicated. 3 fields of view (500 μm × 500 μm) per mouse and 10 mice per cohort were scored. […] Quantification of tumor vasculature (CD31 positive staining) in KPC tumors at end point, treated as indicated. 3 fields of view (1000 μm × 1000 μm) per mouse and 10 mice per cohort were scored. […] Quantification of STAT3 activation (pSTAT3 positive nuclear staining) in KPC tumors at end point, treated as indicated. 3 fields of view (1000 μm × 1000 μm) per mouse and 5 mice per cohort were scored. […] Scale bars = 100 μm. g Quantification of macrophage infiltration (F4/80 positive staining) in KPC tumors at end point, treated as indicated. […]

Where “and” joins values, the source holds several entries; their conditions need not be identical. Equal entries are not always repeated.

Turning to `Nc1ccn([C@@H]2O[C@H](CO)[C@@H](O)C2(F)F)c(=O)n1` [Gem, gemcitabine], the “median survival (time under treatment after tumor reached 50 mm^3)” value with TKCC10 human PDX tumors is 29 days. In the experiment with pSTAT3, the “Quantification of STAT3 activation (pSTAT3 positive nuclear staining)” value was 1.773 and 0.7075 and 2.095 and 2.515 and 2.91 and 1.454 and 7.421 and 2.089 and 1.705 and 5.289 and 6.71 and 3.256 and 6.948 and 7.388 and 6.1144. For the same compound, the pSTAT3-positive nuclear staining result in the experiment on pSTAT3 (KPC tumors at end point) is reported as “significantly increased levels of pSTAT3-positive staining”.

As to `Cl.Cl.NC/C=C(\F)CS(=O)(=O)c1cccc2cccnc12.O` [PXS-5505, (Z)-3-fluoro-4-(quinolin-8-ylsulfonyl)but-2-en-1-amine dihydrochloride monohydrate], the “median survival (time under treatment after tumor reached 50 mm^3)” value with TKCC10 human PDX tumors was 16 days. Also, the “Quantification of STAT3 activation (pSTAT3 positive nuclear staining)” value in the experiment on pSTAT3 was 2.225 and 1.368 and 3.504 and 0.042 and 0 (2×) and 3.991 and 1.153 and 0.6262 and 11.8493 and 3.81 and 4.532 and 0.05376.
